Measured values published in patent US20060035897A1, “Trifluoromethyl substituted benzamides as kinase inhibitors” (priority 2004, published 2006).

**Q.** For Cc1ccc(NC(=O)c2cccc(C(F)(F)F)c2)cc1-c1ccc2ccncc2c1 [Example 1, N-(3-Isoquinolin-7-yl-4-methyl-phenyl)-3-trifluoromethyl-benzamide], which melting point is on record?
**A.** The melting point was 148 to 152 °C.

**Q.** Which melting point does the source give for Cc1ccc(C(=O)Nc2cccc(C(F)(F)F)c2)cc1-c1ccc2ccncc2c1 [Example 3, 3-Isoquinolin-7-yl-4-methyl-N-(3-trifluoromethyl-phenyl)-benzamide] here?
**A.** Its melting point is 157 to 159 °C.

**Q.** With Cc1ccc(NC(=O)c2cccc(C(F)(F)F)c2)cc1-c1ccc2ncsc2c1 [Example 5, N-(3-Benzothiazol-6-yl-4-methyl-phenyl)-3-trifluoromethyl-benzamide] as the molecule, how does the melting point read?
**A.** The melting point was 94 to 96 °C.

**Q.** For Cc1ccc(C(=O)Nc2cccc(C(F)(F)F)c2)cc1-c1ccc2ncsc2c1 [Example 6, 3-Benzothiazol-6-yl-4-methyl-N-(3-trifluoromethyl-phenyl)-benzamide], which melting point is on record?
**A.** The melting point was 102 to 104 °C.

**Q.** Which melting point does the source give for Cc1ccc(NC(=O)c2cccc(C(F)(F)F)c2)cc1-c1ccc2cnncc2c1 [Example 7, N-(4-Methyl-3-phthalazin-6-yl-phenyl)-3-trifluoromethyl-benzamide] here?
**A.** The melting point was 205 to 206 °C.

**Q.** Which melting point does the source give for Cc1ccc(C(=O)Nc2cccc(C(F)(F)F)c2)cc1-c1ccc2cnncc2c1 [Example 8, 4-Methyl-3-phthalazin-6-yl-N-(3-trifluoromethyl-phenyl)-benzamide] here?
**A.** The melting point was 270 to 272 °C.

**Q.** For Cc1ccc(NC(=O)c2cccc(C(F)(F)F)c2)cc1-c1ccc2scnc2c1 [Example 9, N-(3-Benzothiazol-5-yl-4-methyl-phenyl)-3-trifluoromethyl-benzamide], which melting point is on record?
**A.** The melting point was 90 to 93 °C.

**Q.** With Cc1ccc(C(=O)Nc2cccc(C(F)(F)F)c2)cc1-c1ccc2scnc2c1 [Example 10, 3-Benzothiazol-5-yl-4-methyl-N-(3-trifluoromethylphenyl)benzamide] as the molecule, how does the melting point read?
**A.** The melting point was 200 to 202 °C.

**Q.** For Cc1ccc(NC(=O)c2ccc(CN3CCN(C)CC3)c(C(F)(F)F)c2)cc1-c1ccc2cnncc2c1 [Example 15, N-(4-Methyl-3-phthalazin-6-yl-phenyl)-4-(4-methyl-piperazin-1-ylmethyl)-3-trifluoromethyl-benzamide], which melting point is on record?
**A.** Its melting point is 204 to 208 °C.

**Q.** Which melting point does the source give for Cc1ccc(NC(=O)c2ccc(CN3CCCCC3)c(C(F)(F)F)c2)cc1-c1ccc2cnncc2c1 [Example 17, N-(4-Methyl-3-phthalazin-6-yl-phenyl)-4-piperidin-1-ylmethyl-3-trifluoromethyl-benzamide] here?
**A.** The melting point was 175 to 177 °C.

**Q.** For Cc1ccc(NC(=O)c2ccc(CN(C)C)c(C(F)(F)F)c2)cc1-c1ccc2cnncc2c1 [Example 19, 4-Dimethylaminomethyl-N-(4-methyl-3-phthalazin-6-yl-phenyl)-3-trifluoromethyl-benzamide], which melting point is on record?
**A.** Its melting point is 240 to 241 °C.

**Q.** For Cc1ccc(NC(=O)c2ccc(CN3CCOCC3)c(C(F)(F)F)c2)cc1-c1ccc2cnncc2c1 [Example 20, N-(4-Methyl-3-phthalazin-6-yl-phenyl)-4-morpholin-4-ylmethyl-3-trifluoromethyl-benzamide], which melting point is on record?
**A.** The melting point was 236 to 238 °C.

**Q.** For Cc1ccc(C(=O)Nc2ccc(CN3CCCCC3)c(C(F)(F)F)c2)cc1-c1ccc2cnncc2c1 [Example 22, 4-Methyl-3-phthalazin-6-yl-N-(4-piperidin-1-ylmethyl-3-trifluoromethyl-phenyl)-benzamide], which melting point is on record?
**A.** Its melting point is 247 to 249 °C.

**Q.** For Cc1ccc(C(=O)Nc2ccc(CN3CCOCC3)c(C(F)(F)F)c2)cc1-c1ccc2cnncc2c1 [Example 23, 4-Methyl-N-(4-morpholin-4-ylmethyl-3-trifluoromethyl-phenyl)-3-phthalazin-6-yl-benzamide], which melting point is on record?
**A.** The melting point was 284 to 287 °C.

**Q.** For Cc1ccc(C(=O)Nc2ccc(CN(C)C)c(C(F)(F)F)c2)cc1-c1ccc2cnncc2c1 [Example 24, N-(4-Dimethylaminomethyl-3-trifluoromethyl-Phenyl)-4-methyl-3-phthalazin-6-yl-benzamide], which melting point is on record?
**A.** Its melting point is 251 to 254 °C.

**Q.** With Cc1ccc(C(=O)Nc2ccc(CN3CCCC3)c(C(F)(F)F)c2)cc1-c1ccc2cnncc2c1 [Example 25, 4-Methyl-3-phthalazin-6-yl-N-(4-pyrrolidin-1-ylmethyl-3-trifluoromethyl-phenyl)-benzamide] as the molecule, how does the melting point read?
**A.** Its melting point is 246 to 250 °C.
